Publication PMC10671498, “Antiproliferative and Cytotoxic Properties of Propynoyl Betulin Derivatives against Human Ovarian Cancer Cells: In Vitro Studies” (International Journal of Molecular Sciences, 2023)
pIC50: −log10 of the molar value. Like-named read-outs stand apart in the source and are kept apart here.

Assays:
[1] = test system: 18Co normal myofibroblasts; experiment: SRB cell proliferation assay, 18Co normal myofibroblasts; format: cell-based
Procedure: Next, 18Co cells (ATCC No. CRL-1459™) were cultured in MEM medium containing HEPES buffer, 10% fetal bovine serum, 100 U/mL penicillin, and 100 μg/mL streptomycin (all from Sigma Aldrich).
(§1) Betulin 1 and its derivatives were dissolved in dimethyl sulfoxide (DMSO; Sigma Aldrich) as a 15 mM stock solution. Working solutions were prepared through the dilution of stock solutions with culture medium. The final DMSO concentration in culture media was adjusted to 0.2%. The effect of tested compounds on the proliferation of SK-OV-3 and OVCAR-3 cells was measured using the In Vitro Toxicology Assay Kit, Sulforhodamine B based (Sigma Aldrich). Cells were seeded in 96-well plates (Greiner Bio-One, Kremsmünster, Austria) at an initial density of 3 × 10^3 cells per well in 200 µL of culture medium. After 24 h of incubation, betulin 1 and its derivatives at a concentration range of 0.1 μM to 30 μM were added to the wells. Control cultures were treated with vehicle alone (0.2% DMSO). The incubation periods for cells with test compounds were 1 day, 3 days, and 5 days. After appropriate incubation periods, culture media were removed, and cells were fixed in 10% trichloroacetic acid solution for 60 min at 4 °C. After fixation, the TCA solution was removed, and the plates were washed three times with deionized water (300 μL/well) and dried. At the next step, cells were stained with 0.4% sulforhodamine B for 30 min. The excess dye was removed by washing three times with 1% (vol/vol) acetic acid. The protein-bound dye was dissolved in 200 μL 10 mM Tris base solution. Absorbance was measured at 570 nm and 690 nm (reference wavelength) using the MRX Revelation plate reader (Dynex Technologies, Chantilly, VA, USA).
(§2) GraphPad Prism 10.0.2 (GraphPad Software Inc., San Diego, CA, USA) software was used for calculations and the statistical analysis of the IC50 values (Table 1). IC50 was determined by using the “nonlinear regression” mode, and the “log(inhibitor) vs. normalised response—Variable slope” equation was chosen in GraphPad Prism software for calculations. The obtained data were normalized to run from 100% down to 0%, and logarithms of concentration were used. Graphs (Figure 2, Figure 3, Figure 4, Figure 5 and Figure 8, and Supplementary Figure S1) were also prepared using this software. In the case of the lack of normal distribution or homogeneity of variances, the remaining results were analyzed using a non-parametric Kruskal–Wallis test with multiple comparisons. Post hoc analysis was performed with the non-parametric equivalent of Tukey’s test. A p value of <0.05 was considered statistically significant. Otherwise, a one-way ANOVA followed by a Tukey’s post hoc test was applied. t-tests was used to perform pairwise comparisons between group means. Analysis was performed using Statistica 13.1 software (StatSoft, Tulsa, OK, USA).

[2] = test system: SK-OV-3 cells; experiment: DNA fragmentation assay (Cell Death Detection ELISA, cytoplasmic fraction), SK-OV-3; format: cell-based, human; settings: SK-OV-3, 24 h, 3, 10, 30 µM
Procedure: (§3) Fragmentation of genomic DNA was determined by means of the Cell Death Detection ELISAPLUS kit (Roche, Basel, Switzerland). This method rests on the immunoenzymatic detection of DNA–histone complexes in the cytoplasmic cell fraction or cell culture supernatants. Cells were plated and cultured in 96-well plates (Greiner Bio-One) at the initial density of 5 × 10^3 cells per well in 100 µL of culture medium. Cells were allowed to attach and grow for 1 day prior to the addition of test reagents. Then, the media were replaced with the working solutions (3 µM, 10 µM, 30 µM), and cells were exposed to compounds 2–6 for 24 h. In some cases, 5 µM cyclosporin A (CsA, an inhibitor of the mitochondrial permeability transition) was added to the cells 30 min before treatment with the betulin derivative. Subsequently, cells were incubated concomitantly with both compounds. After a 24 h incubation period, plates were centrifuged (200× g; 10 min), media were removed, and cells were lysed for 30 min at room temperature. At the next step, the lysates were again spun (200× g; 10 min), and 20 µL of supernatants (cytoplasmic fractions) was moved to the new 96-well streptavidin-coated plate. In one experiment, the presence of mono- and oligonucleosomes was determined in 20 µL samples of centrifuged culture supernatants (media) to detect the permeability of plasma membrane (considered as an indicator of cell necrosis). Then, the sandwich ELISA assay was fulfilled according to the manufacturer’s protocol. Absorbance was measured at 405 nm and 490 nm (reference wavelength), and the enrichment factor of the cytoplasmic (or supernatant) fraction in mono- and oligonucleosomes was calculated according to the formula: EF = absorbance of sample cells/absorbance of control cells.
(§4) A high EF index in the cytoplasmic fraction (resulting from DNA fragmentation while maintaining the tightness of cell membranes) is a typical indicator of the relatively early stage of apoptosis.

[3] = test system: human melanoma cell line C32; set-up: method as in PMID 28100848; settings: C32, 3 μM; cited from earlier work
[4] = test system: OVCAR-3 cells; experiment: SRB cell proliferation assay, OVCAR-3; format: cell-based, human; settings: for pIC50: Homo sapiens; for concentration at which antiproliferative activity (decrease in the number of cells) was evident: OVCAR-3, SRB assay, 0.1–30 µM
Procedure: OVCAR-3 cells (ATCC No. HTB-161™) were cultured in RPMI-1640 medium containing HEPES buffer (2.383 g/L), sodium bicarbonate (1.5 g/L), sodium pyruvate (0.11 g/L) supplemented with 20% fetal bovine serum, 10 µg/mL bovine insulin, 100 U/mL penicillin, and 100 μg/mL streptomycin (all from Sigma Aldrich).
as §1, §2

[5] = test system: SK-OV-3 cells; experiment: SRB cell proliferation assay, SK-OV-3; format: cell-based, human; settings: for pIC50: Homo sapiens; for concentration at which antiproliferative activity (decrease in the number of cells) was evident: SK-OV-3, SRB assay, 0.1–30 µM
Procedure: This study used ovarian cancer cell lines, which are part of the panel of cell lines used as part of the NCI-60 Human Cell Lines Screen program, characterized by overexpression of the c-erbB2/neu (HER2) receptor [62, 63]. The human ovarian cancer cell lines (SK-OV-3 and OVCAR-3) were purchased from the American Type Culture Collection (ATCC®, Manassas, Virginia, USA). SK-OV-3 cells (ATCC No. HTB-77™) were cultured in McCoy’s 5A medium containing D-glucose (3 g/L), L-glutamine (0.219 g/L), and sodium bicarbonate (2.2 g/L) supplemented with 10% fetal bovine serum, 10 mM HEPES (pH 7.3–7.5), 100 U/mL penicillin, and 100 μg/mL streptomycin (all from Sigma Aldrich).
as §1, §2

[6] = test system: SK-OV-3 cells; experiment: TMRM analysis of mitochondrial membrane potential; format: cell-based, human; settings: SK-OV-3, 3 h, 30 µM
Procedure: Tetramethylrhodamine methyl ester (Sigma Aldrich) was used for the assessment of changes in the transmembrane potential of mitochondria. TMRM is a fluorescent cationic dye accumulating in mitochondria in a potential-dependent manner. Cell cultures were prepared as described above for acridine orange staining. Cells were exposed to test solutions for 3 h, and then TMRM was added (final concentration 100 nM) followed by incubation for 30 min in the CO2 incubator. Prior to observation, the plates were centrifuged (250× g, 5 min), and the medium was changed to PBS. The cells were analyzed under the Nikon Eclipse TS-100F microscope and photographed.

[7] = test system: human melanoma cell line A2058; set-up: method as in PMID 28100848; settings: A2058, 3 μM; cited from earlier work
[8] = test system: OVCAR-3 cells; experiment: DNA fragmentation assay (Cell Death Detection ELISA, cytoplasmic fraction), OVCAR-3; format: cell-based, human; settings: OVCAR-3, 24 h, 3, 10, 30 µM, among the betulin derivatives
Procedure: as §3, §4

[9] = test system: OVCAR-3 cells; experiment: LDH release assay, OVCAR-3; format: cell-based, human; settings: OVCAR-3, 24 h
Procedure: (§5) In order to evaluate the cytotoxic effect, the release of LDH into the culture medium using the In Vitro Toxicology Assay Kit, Lactic Dehydrogenase Based (TOX7; Sigma Aldrich) was assessed. SK-OV-3 and OVCAR-3 cells were plated and cultured in 96-well plates (Greiner Bio-One) at the initial density of 5 × 10^3 cells per well in 100 µL of culture medium. The density of the cells was determined in the same manner as in the SRB assay. After 24 h, the media were replaced with the working solutions, which contained appropriate test compounds at concentrations of 3 μM, 10 μM, 30 μM, and control medium (0.2% DMSO). Cells were exposed to the test substances for 24 h. The background control comprised wells without cells with only control medium. To determine the maximal LDH release (high control), half of the control cultures were treated with lysis buffer. Wells with untreated cells were used as the low control of the assay. LDH activity in media was assessed according to the manufacturer’s protocol. The absorbance was measured at wavelengths of 490 nm and 690 nm (background), and the percentage of released enzyme was calculated for cells growing in the presence of compounds according to the formula:Cytotoxicity [%] = [(AT − AL)/(AH − AL)] × 100 where AT is the absorbance of treated wells; AL is low control; and AH is high control (maximal LDH release).
(§6) Cytotoxicity was expressed as a percentage of the released LDH calculated according to the difference between the absorbance of the treated and low control wells divided by the difference between the absorbance of the high control and low control wells.

[10] = test system: SK-OV-3 cells; experiment: LDH release assay, SK-OV-3; format: cell-based, human; settings: SK-OV-3, 24 h, all concentrations (3, 10, 30 μM)
Procedure: as §5, §6

[11] = 18Co, 3 days treatment, Neg: negative in the concentration used
[12] = 18Co, 5 days treatment, Neg: negative in the concentration used
[13] = 72 h, OVCAR-3, 3 days treatment, SRB assay, read-out: IC50
[14] = 120 h, OVCAR-3, 5 days treatment, SRB assay, read-out: IC50
[15] = 72 h, SK-OV-3, 3 days treatment, SRB assay, read-out: IC50
[16] = 120 h, SK-OV-3, 5 days treatment, SRB assay, read-out: IC50

Compound | IC50 [1, 11] | IC50 [1, 12] | pIC50 [4, 13] | pIC50 [4, 14] | concentration at which antiproliferative activity (decrease in the number of cells) was evident [4] [µM] | pIC50 [5, 15] | pIC50 [5, 16] | concentration at which antiproliferative activity (decrease in the number of cells) was evident [5] [µM] | pIC50 ([4]; OVCAR-3, 72 h) | pIC50 ([4]; OVCAR-3, 120 h) | pIC50 ([5]; SK-OV-3, 72 h) | pIC50 ([5]; SK-OV-3, 120 h) | also measured
C#CC(=O)OC[C@]12CC[C@@H](C(=C)C)[C@@H]1[C@H]1CC[C@@H]3[C@@]4(C)CC[C@H](O)C(C)(C)[C@@H]4CC[C@@]3(C)[C@]1(C)CC2 [Compound 2, 28-O-propynoylbetulin] | Neg | Neg | 6.80 | 6.72 | ≥ 0.3 | 6.74 | 6.70 | ≥ 0.3 |  |  |  |  | DNA fragmentation (enrichment factor, internucleosomal DNA fragments) [2]: moderate increases; inhibition of proliferation [3]: strong inhibition; mitochondrial membrane potential (TMRM fluorescence) [6]: reduced the mitochondrial membrane potential; inhibition of proliferation [7]: strong inhibition
C#CC(=O)O[C@H]1CC[C@@]2(C)C(CC[C@]3(C)C2CCC2C4[C@H](C(=C)C)CC[C@]4(COP(=O)(OCC)OCC)CC[C@]23C)C1(C)C (stereo partly shown) [Compound 4, 28-O-diethoxyphosphoryl-3-O-propynoylbetulin] |  |  |  |  | > 3 |  |  |  | 5.73 | 5.84 | 5.97 | 5.88 | pIC50 ([1]; 72 h): 5.02; pIC50 ([1]; 120 h): 4.62; DNA fragmentation (enrichment factor) [8]: greatest effect; cytotoxicity (released LDH), loss of cell membrane integrity ([9]; 10 μM and 30 μM): loss of cell membrane integrity was also confirmed
C#CC(=O)OC[C@]12CC[C@@H](C(=C)COP(=O)(OCC)OCC)C1C1CCC3[C@@]4(C)CC[C@H](O)C(C)(C)C4CC[C@@]3(C)[C@]1(C)CC2 (stereo partly shown) [Compound 5, 30-diethoxyphosphoryloxy-28-O-propynoylbetulin] | Neg | Neg |  |  | 1 |  |  | 1 | 6.27 | 6.22 | 6.55 | 6.54 | cytotoxicity (released LDH) ([9]; all concentrations (3, 10, 30 μM)): significant cytotoxic activity; cytotoxicity (released LDH) [10]: strong cytotoxic effect
CC(=O)O[C@H]1C(=O)[C@@]2(C)[C@H]([C@H](OC(=O)c3ccccc3)[C@]3(O)C[C@H](OC(=O)[C@H](O)[C@@H](NC(=O)c4ccccc4)c4ccccc4)C(C)=C1C3(C)C)[C@]1(OC(C)=O)CO[C@@H]1C[C@@H]2O [PTX, Paclitaxel, reference compound] | Neg |  | 8.35 | 8.53 |  | 8.36 | 8.25 |  |  |  |  |  | pIC50 ([1]; 120 h, 18Co, 5 days treatment, Neg: negative in the concentration used, read-out: IC50): 7.83
